Reference: patent US10272056B2, “Treatment for mitochondrial diseases” (The George Washington University a Congressionally …, priority 2015, dated 2019)
Read-outs that look alike come from different tables or passages of the source.

Legend:
[1] = cited from earlier work; for toxicity or side effects on oral administration: TBN 1.5 mM, AN9 300 μM concentrations
MELAS fibroblasts [2] = test: Mitochondrial mass, morphology and networking (MTG live cell confocal analysis); format: cell-based, human; details: three-day exposure; NaBt 2.5 mM, TBN 1.5 mM, AN9 300 μM
Excerpt: FIG. 17A-17C are images from microscopy and graphs showing that butyrates rescue the mitochondrial phenotype in MELAS fibroblasts. (A) Confocal analysis of healthy and MELAS fibroblasts treated as indicated and labeled with the MTG dye; scale bar=10 (B) Analysis of the mitochondrial mass; n=3 (60 cells per experiment; ^‡p<0.05, unpaired T-test *p<0.05, paired T-test). (C) Analysis of Δψm (^‡p<0.05, unpaired T-test; *p<0.05, paired T-test).
(§1) Butyrates rescue the mitochondrial mass, morphology, networking, membrane potential, and cellular ATP levels in MELAS fibroblasts. Skin fibroblasts from two MELAS patients and from a healthy subject as a control were used. Dose-dependent analyses of butyrates to determine their best concentrations for eliciting an optimal mitochondrial response without cellular toxicity was performed. Healthy and MELAS fibroblasts were treated with PBS, NaBt (2.5 mM), TBN (1.5 mM), or AN9 (300 μM) for three days before labeling with the MTG dye for live cell confocal analysis.
as §1, with “networking, and” for “networking,”, “potential” for “potential, and cellular ATP levels”, “butyrates was performed” for “butyrates”, “toxicity.” for “toxicity was performed.”

[3] = test system: healthy and MELAS fibroblasts; test: Dose-dependent studies for optimal safe concentrations; format: cell-based, human; details: three days of treatment
Excerpt: Experimental approaches. Five distinct molecular tools were used to investigate mitochondrial biogenesis: 1) the mitochondrial-specific dyes, MitoTracker® Green (MTG) and MitoTracker® Red (MTR); 2) the mito-GFP or mito-dsRed vector to fluorescently label mitochondria; 3) antibodies against mtDNA, COXVα, or SOD2; 4) the fluorescent PicoGreen® dye labeling mtDNA; and 5) quantitative PCR to determine mtDNA copy number.
as §1

[4] = cited from earlier work
MELAS fibroblasts [5] = test: Morphometric analysis of mitochondrial connectivity (Image J); format: cell-based, human; details: Image J analysis of MTG-labeled fibroblasts
Description: FIG. 18 is a graph showing that butyrate and its derivatives rescue the mitochondrial dynamics and connectivity in MELAS fibroblasts.
as §1, with “networking, and” for “networking,”, “potential” for “potential, and cellular ATP levels”, “butyrates was performed” for “butyrates”, “toxicity.” for “toxicity was performed.”

[6] = human, in vivo; cited from earlier work
SDH-A = test: Quantitative immunoblot of nuclear-encoded SDH-A; format: cell-based; details: chloramphenicol 15-60 μM
Excerpt: (§2) FIG. 14A-14E are images from microscopy showing that pre-treatment of PC12-ND6 cells with NaBt prevents chloramphenicol-mediated decrease of mitochondrial mass. (A) Graph of PC12-ND6 cell death upon exposure to different concentrations of chloramphenicol (Cm). Percent of cell death±SEM (n=250 cells). (B) Quantitative immunoblot analysis of mitochondrial-encoded MT-CO1 protein (green) and nuclear-encoded SDH-A protein (red) in Cm-treated PC12-ND6 cells. (C) Graph of MT-CO1/SDH-A ratio normalized to untreated PC12-ND6 cells. Mean±SEM (n=3; compared to untreated cells *p=0.0052, **p=0.0048, and ***p=0.0034). (D) Confocal micrographs of untreated and Cm-treated PC12-ND6 cells transfected with the vector mito-GFP. Scale bar represents 5 μm. (E) Confocal micrographs of NaBt pre-treated PC12-ND6 cells transfected with the vector mito-GFP and exposed to Cm. Scale bar represents 5 μm.
(§3) The efficacy of chloramphenicol treatment was determined by simultaneously examining the expression levels of the nuclear-encoded succinate dehydrogenase (SDH-A) subunit of Complex II and the mitochondrial-encoded subunit I of Complex IV (MT-COI) using a quantitative immunoblot approach. […] The effect of chloramphenicol on mitochondrial mass by live-cell confocal microscopy using PC12-ND6 cells transfected with the vector mito-GFP was confirmed.

PC12-ND6 cells [7] = test: Cell death upon chloramphenicol exposure; format: cell-based; details: chloramphenicol 0, 15, 30, 60 μM, two days
Excerpt: as §2, §3

PC12-ND6 cells [8] = test: NGF (100 ng/ml)-mediated neurite outgrowth after chloramphenicol; format: cell-based; details: chloramphenicol lowest concentration two days, then NGF 100 ng/ml three days
Excerpt: FIG. 15A-15C are images from microscopy and a graph showing that Pre-treatment of PC12-ND6 cells negates the inhibitory effect of chloramphenicol on NGF-mediated neuronal differentiation. (A) Confocal micrographs of untreated and Cm-treated PC12-ND6 cells transfected with the vector mito-GFP and exposed to NGF. Scale bar represents 20 μm. (B) Confocal micrographs of NaBt pre-treated PC12-ND6 cells transfected with the vector mito-GFP and exposed to chloramphenicol prior to NGF treatment. Scale bar represents 20 μm. (C) Graph of average total neurite length. Mean±SEM (n=50 cells; compared to untreated PC12-ND6 cells *p=0.0001; compared to non-NaBt-treated PC12-ND6 cells with corresponding Cm concentration **p=0.0001).
Based on the results that NaBt endows PC12-ND6 cells with increased mitochondrial mass through biogenesis, resulting in accelerated neuronal differentiation, it was examined whether exposure to NaBt for three days could confer protection to chloramphenicol-mediated inhibition of neuronal differentiation upon NGF signaling.

[9] = test system: E17.5 hippocampal neurons; test: Neuronal stage 3 frequency with chloramphenicol and NaBt; format: cell-based; details: no NaBt
Excerpt: FIG. 16A-16I are images from microscopy and a graph showing that Pre-treatment of E17.5 hippocampal neurons with NaBt protects against chloramphenicol-induced loss of neuronal differentiation. (A-D) Confocal micrographs of E17.5 hippocampal neurons exposed to different concentrations of chloramphenicol at 2DIV and labeled with anti tubulin antibody (red) and nuclear counterstain DAPI (blue) at 3DIV. Scale bar represents 10 μm. (E-H) Confocal micrographs of E17.5 hippocampal neurons treated with NaBt (2 mM) at 1DIV prior to exposure to different concentrations of chloramphenicol at 2DIV and labeled with anti tubulin antibody (red) and nuclear counterstain DAPI (blue) at 3DIV. Scale bar represents 10 μm. (I) Graph of E17.5 β-III^+ hippocampal neurons at the neuronal stage 3. Mean±S.D. (n=250 cells; compared to untreated control *p=0.0001; compared to the corresponding non-NaBt treated sample **p=0.0001; compared to non-NaBt treated cells exposed to Cm at 30 μM‡p=0.007).
The consequences of chloramphenicol exposure on untreated or NaBt-treated E17.5 hippocampal neurons was examined. At 1DIV, dissociated E17.5 hippocampal neurons were switched to differentiation medium in the absence or presence of NaBt (2 mM) for 24 hours before being treated with increasing concentrations of chloramphenicol (0, 15, 30, and 60 μM) for 24 hours. At 3DIV, their phenotypic differentiation was examined by immunocytochemistry using an antibody against the pan-neuronal marker β-III tubulin and quantified the percent of neurons having reached the developmental stage 3 for each experimental condition. As expected, only half of untreated neurons reached stage 3 in the absence of NaBt, while more than 90% of NaBt-treated neurons achieved such degree of differentiation, thereby forming an elaborate neuritic network (FIGS. 16A, E, and I).

MT-COI = test: Quantitative immunoblot of mitochondrial-encoded MT-COI; format: cell-based; details: lowest dose of chloramphenicol
Excerpt: as §2, §3

PC12-ND6 cells [10] = test: Mitochondrial mass under chloramphenicol (mito-GFP live-cell confocal microscopy); format: cell-based; details: chloramphenicol-treated
Excerpt: as §2, §3

PC12-ND6 cells [11] = details: dbcAMP alone, PC12 cell system; cited from earlier work
MELAS fibroblasts [12] = test: Apoptosis induced by hydroxamate HDACis; format: cell-based, human
PC12-ND6 cells [13] = details: TSA 0.66 μM, control HDAC inhibitor; cited from earlier work

For `CCCC(=O)OCOC(=O)C(C)(C)C` [AN9, pivaloyloxymethyl butyrate], the “toxicity or side effects on oral administration” value [1] is given as “without toxicity or side effects”, the toxicity ([1]; in vivo) is given as “low toxicity” and the “oral pharmacological concentrations relative to NaBt” value ([1]; orally administered) is given as 140 times lower than NaBt. For the same molecule, the “mitochondrial mass, morphology, and networking” value (MELAS fibroblasts [2]) was “restored normal mitochondrial mass, morphology, and networking”, the “optimal safe concentration for eliciting maximal mitochondrial biogenesis without cellular toxicity” value [3] was 300 µM and the cell membrane permeability [4] was “increased cell membrane permeability”. The connectivity among mitochondria (MELAS fibroblasts [5]) was “rescue the connectivity among mitochondria”.
In the case of `CCCC(=O)OCC(COC(=O)CCC)OC(=O)CCC` [TBN, tributyrin], the “toxicity or side effects on oral administration” value [1] is given as “without toxicity or side effects”, the “concentration pharmacologically attainable via oral administration without toxicity or side effects” value ([1]; oral) is given as “up to 2 mM” and the “mitochondrial mass, morphology, and networking” value (MELAS fibroblasts [2]) is given as “restored normal mitochondrial mass, morphology, and networking”. For the same molecule, the “optimal safe concentration for eliciting maximal mitochondrial biogenesis without cellular toxicity” value [3] was 1500 µM and the connectivity among mitochondria (MELAS fibroblasts [5]) was “rescue the connectivity among mitochondria”.
For `CCCC(CCC)C(=O)O` [Valproic acid], the effect on seizures [6] is listed as “propensity to worsen seizures”.
For `O=C(N[C@H](CO)[C@H](O)c1ccc([N+](=O)[O-])cc1)C(Cl)Cl` [chloramphenicol], the SDH-A expression levels (SDH-A) was “none of the chloramphenicol concentrations altered”, the cell death (PC12-ND6 cells [7]) was “negligible cell death” and the “reduction in total neurite length” value (PC12-ND6 cells [8]) was 43%. The “percent of neurons at stage 3” value ([9]; chloramphenicol 15 μM) was “did not alter the percent of neurons at stage 3”, the “decreased transition to stage 3” value ([9]; chloramphenicol 30 μM) was 27% and the “decreased transition to stage 3” value ([9]; chloramphenicol 60 μM) was 54%. For the same molecule, the MT-COI expression (MT-COI) was “abolished most of MT-COI expression” and the mitochondrial mass (PC12-ND6 cells [10]) was “concentration-dependent decrease of mitochondrial mass”.
In the case of `CCCC(=O)Nc1ncnc2c1ncn2[C@@H]1O[C@@H]2COP(=O)(O)O[C@H]2[C@H]1OC(=O)CCC` [dbcAMP], the neurite length (PC12-ND6 cells [11]) is listed as 15-20 μm.
For `CC(/C=C/C(=O)NO)=C\[C@@H](C)C(=O)c1ccc(N(C)C)cc1` [trichostatin A], the apoptosis (MELAS fibroblasts [12]) is given as “induce apoptosis” and the cell death (PC12-ND6 cells [13]) is given as “mild cell death”.
With `O=C(CCCCCCC(=O)Nc1ccccc1)NO` [vorinostat] the apoptosis (MELAS fibroblasts [12]) was “induce apoptosis”.
